Where two headings read alike, the source gives them in different places. One block for each molecule: values may come before it.
How the values were obtained:
PRPS1 [1] = target: T1, PRPS1 (Homo sapiens, UniProt P60891); test: biochemical; parameters: PRPS1/2 activity by ATP consumption, Kinase-Glo luminescence
T1 construct: His-tagged, pET-28a, expressed in E. coli BL21, Ni-Sepharose purified
T1 sequence (P60891 2-318): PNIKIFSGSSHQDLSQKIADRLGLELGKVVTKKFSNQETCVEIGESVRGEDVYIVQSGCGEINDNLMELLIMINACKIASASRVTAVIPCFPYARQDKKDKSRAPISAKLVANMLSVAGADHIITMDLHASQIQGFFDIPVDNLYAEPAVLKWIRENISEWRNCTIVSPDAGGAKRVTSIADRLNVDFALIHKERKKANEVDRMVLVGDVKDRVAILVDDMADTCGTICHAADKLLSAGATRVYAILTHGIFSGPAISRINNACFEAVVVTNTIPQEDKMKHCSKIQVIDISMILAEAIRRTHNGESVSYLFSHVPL

PRPS2 [2] = target: T2, PRPS2 (Homo sapiens, UniProt P11908); test: biochemical; parameters: PRPS1/2 activity by ATP consumption, Kinase-Glo luminescence
T2 construct: His-tagged, pET-28a, expressed in E. coli BL21, Ni-Sepharose purified; the AlphaFold id for docking (AF-P60891-F1) is that of PRPS1
T2 sequence (P11908 2-318): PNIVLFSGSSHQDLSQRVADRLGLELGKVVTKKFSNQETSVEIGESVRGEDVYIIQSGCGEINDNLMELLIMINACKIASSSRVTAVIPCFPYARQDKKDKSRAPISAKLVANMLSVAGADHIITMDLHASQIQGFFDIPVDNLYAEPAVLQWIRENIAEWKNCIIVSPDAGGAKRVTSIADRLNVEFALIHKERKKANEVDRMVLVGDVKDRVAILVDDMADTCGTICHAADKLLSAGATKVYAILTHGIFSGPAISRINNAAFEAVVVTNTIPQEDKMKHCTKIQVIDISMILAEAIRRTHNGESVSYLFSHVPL

PRPS1 [3] = target: T1, PRPS1; test: ATP consumption, Kinase-Glo; format: biochemical; conditions: 300 µM ATP, 300 µM R-5-P, 5 mM MgCl2, 5 mM Na3PO4, pH 7.5, 37 °C; allosteric effector
PRPS2 [4] = target: T2, PRPS2; test: ATP consumption, Kinase-Glo; format: biochemical; conditions: 300 µM ATP, 300 µM R-5-P, 5 mM MgCl2, 5 mM Na3PO4, pH 7.5, 37 °C; allosteric effector
HeLa Tet-on EcSTH = system: T3, HeLa Tet-on EcSTH; test: cells; parameters: Sensitivity of HeLa cells to menadione, proliferation after 48 h; conditions: Homo sapiens, 48 h, Dox-, read-out: IC50 menadione
T3 construct: HeLa with inducible Tet-on EcSTH, not induced
Experimental: From top to bottom: **P < 0.0001, **P < 0.0001, **P < 0.0001, two-way ANOVA. d Effects of EGFP, EcSTH, LbNOX, or EcSTH-LbNOX expression on colony formation in HeLa cells cultured with Dox, as indicated, for 10 days (n = 3 biologically independent samples). From left to right: *P = 0.013, **P = 0.0001, **P = 6.58e-07, two-tailed Student’s t-tests. e The in vivo tumor growth of HeLa cells expressing inducible Tet-on EcSTH or EcSTH-LbNOX (n = 5 biologically independent animals). 2 mg/mL Dox was added in drinking water on day 10 and updated every two days. **P < 0.0001, two-way ANOVA. f Effects of α-KB treatment on proliferation of HeLa^Tet-on EcSTH cells. Cells were counted after treatment with Dox (1 µg/mL) and α-KB (1 or 2 mM) for 48 h (n = 4 biologically independent samples). From left to right: **P = 2.44e-06, **P = 1.85e-06, two-tailed Student’s t-tests. g Effects of inhibitors on proliferation of HeLa^Tet-on EcSTH cells. Cells were pretreated with the indicated inhibitors for 2 h, and cells were counted after treatment with Dox (1 µg/mL) for 48 h (n = 3 biologically independent samples). z-VAD (z-VAD-FMK, 20 µM), NSA (necrosulfonamide, 10 µM), Ferr-1 (Ferrostain-1, 5 µM). […] Cell apoptosis was measured by Flow cytometry after treatment with Dox (1 µg/mL) and α-KB (2 mM) for 24 h (n = 3 biologically independent samples). […]

HeLa Tet-on EcSTH-LbNOX = system: T4, HeLa Tet-on EcSTH-LbNOX; test: cells; parameters: Sensitivity of HeLa cells to menadione, proliferation after 48 h; conditions: Homo sapiens, 48 h, Dox-, read-out: IC50 menadione
T4 construct: HeLa with inducible Tet-on EcSTH-LbNOX, not induced

PRPS2 [5] = target: T2, PRPS2; test: SPR (Biacore T200), His-PRPS2 immobilized on CM5 chip; format: binding; conditions: read-out: dissociation constant
EcSTH-LbNOX = system: T5, EcSTH-LbNOX; test: thio-NAD+ reduction at […] nm / NADPH depletion at […] nm; format: biochemical, Escherichia coli; conditions: 50 mM Tris-HCl pH 7.5, 10 μM FAD, 35 °C, EcSTH site
T5 construct: gene sthA; single-chain fusion EcSTH-Flag-LbNOX, three tandem Flag peptides as linker, expressed in HeLa cells, anti-Flag M2 purified; with NADH oxidase (water-forming)

purified protein [6] = substrate: NC(=O)C1=CN([C@@H]2O[C@H](COP(=O)(O)OP(=O)(O)OC[C@H]3O[C@@H](n4cnc5c(N)ncnc54)[C@H](O)[C@@H]3O)[C@@H](O)[C@H]2O)C=CC1; test: purified protein; conditions: 50 mM Tris-HCl pH 7.5, 10 μM FAD, 35 °C
purified protein [7] = substrate: NC(=S)c1ccc[n+]([C@@H]2O[C@H](COP(=O)(O)OP(=O)(O)OC[C@H]3O[C@@H](n4cnc5c(N)ncnc54)[C@H](O)[C@@H]3O)[C@@H](O)[C@H]2O)c1; test: purified protein; format: biochemical, Escherichia coli; conditions: 400 µM NADPH, 50 mM Tris-HCl pH 7.5, 10 μM FAD, 35 °C
purified protein [8] = substrate: NC(=O)C1=CN([C@@H]2O[C@H](COP(=O)(O)OP(=O)(O)OC[C@H]3O[C@@H](n4cnc5c(N)ncnc54)[C@H](OP(=O)(O)O)[C@@H]3O)[C@@H](O)[C@H]2O)C=CC1; test: purified protein; format: biochemical, Escherichia coli; conditions: 400 µM thio-NAD+, 50 mM Tris-HCl pH 7.5, 10 μM FAD, 35 °C

IC50 (PRPS1 [1]; read-out: IC50 of GDP (PRPS1)): 171 µM
IC50 (PRPS2 [2]; read-out: IC50 of GDP (PRPS2)): 251 µM
Molecule: Nc1nc2c(ncn2[C@@H]2O[C@H](COP(=O)(O)OP(=O)(O)O)[C@@H](O)[C@H]2O)c(=O)[nH]1 [GDP]
ATP consumption, Kinase-Glo (PRPS1 [3]): NADH and NAD^+ exerted no effect on the suppression of PRPS1 by ADP or GDP
ATP consumption, Kinase-Glo (PRPS2 [4]): protected PRPS2 against inhibition by ADP, but not against that by GDP

IC50 (HeLa Tet-on EcSTH): 27.8 µM
IC50 (HeLa Tet-on EcSTH-LbNOX): 27.4 µM
Molecule: CC1=CC(=O)c2ccccc2C1=O [Menadione]

Kd (PRPS2 [5]): 118 µM
Molecule: NC(=O)C1=CN([C@@H]2O[C@H](COP(=O)(O)OP(=O)(O)OC[C@H]3O[C@@H](n4cnc5c(N)ncnc54)[C@H](O)[C@@H]3O)[C@@H](O)[C@H]2O)C=CC1 [NADH]

Km (EcSTH-LbNOX; 400 µM NADPH): 272 µM
Molecule: NC(=S)c1ccc[n+]([C@@H]2O[C@H](COP(=O)(O)OP(=O)(O)OC[C@H]3O[C@@H](n4cnc5c(N)ncnc54)[C@H](O)[C@@H]3O)[C@@H](O)[C@H]2O)c1 [thio-NAD^+]

The remaining lines, values behind:

Molecule: Nc1ncnc2c1ncn2[C@@H]1O[C@H](COP(=O)(O)OP(=O)(O)O)[C@@H](O)[C@H]1O [ADP]
IC50 (PRPS1 [1]; read-out: IC50 of ADP (PRPS1)): 41.3 µM
IC50 (PRPS2 [2]; read-out: IC50 of ADP (PRPS2)): 77.4 µM

Molecule: NC(=O)C1=CN([C@@H]2O[C@H](COP(=O)(O)OP(=O)(O)OC[C@H]3O[C@@H](n4cnc5c(N)ncnc54)[C@H](OP(=O)(O)O)[C@@H]3O)[C@@H](O)[C@H]2O)C=CC1 [NADPH]
Km (EcSTH-LbNOX; 400 µM thio-NAD+): 194 µM

B1: LbNOX (Levilactobacillus brevis ATCC 367) (protein)
chain: MKVTVVGCTHAGTFAIKQILAEHPDAEVTVYERNDVISFLSCGIALYLGGKVADPQGLFYSSPEELQKLGANVQMNHNVLAIDPDQKTVTVEDLTNHAQTTESYDKLVMTSGSWPIVPKIPGIDSDRVKLCKNWAHAQALIEDAKEAKRITVIGAGYIGAELAEAYSTTGHDVTLIDAMARVMPKYFDADFTDVIEQDYRDHGVQLALGETVESFTDSATGLTIKTDKNSYETDLAILCIGFRPNTDLLKGKVDMAPNGAIITDDYMRSSNPDIFAAGDSAAVHYNPTHQNAYIPLATNAVRQGILVGKNLVKPTVKYMGTQSSSGLALYDRTIVSTGLTLAAAKQQGLNAEQVIVEDNYRPEFMPSTEPVLMSLVFDPDTHRILGGALMSKYDVSQSANTLSVCIQNENTIDDLAMVDMLFQPNFDRPFNYLNILAQAAQAKVAQSVNA
Km (purified protein [6]): 88.73 µM
kcat (purified protein [6]): 836.55 s⁻¹

B2: EcSTH (Escherichia coli K-12) (protein)
chain: PHSYDYDAIVIGSGPGGEGAAMGLVKQGARVAVIERYQNVGGGCTHWGTIPSKALRHAVSRIIEFNQNPLYSDHSRLLRSSFADILNHADNVINQQTRMRQGFYERNHCEILQGNARFVDEHTLALDCPDGSVETLTAEKFVIACGSRPYHPTDVDFTHPRIYDSDSILSMHHEPRHVLIYGAGVIGCEYASIFRGMDVKVDLINTRDRLLAFLDQEMSDSLSYHFWNSGVVIRHNEEYEKIEGCDDGVIMHLKSGKKLKADCLLYANGRTGNTDSLALQNIGLETDSRGQLKVNSMYQTAQPHVYAVGDVIGYPSLASAAYDQGRIAAQALVKGEATAHLIEDIPTGIYTIPEISSVGKTEQQLTAMKVPYEVGRAQFKHLARAQIVGMNVGTLKILFHRETKEILGIHCFGERAAEIIHIGQAIMEQKGGGNTIEYFVNTTFNYPTMAEAYRVAALNGLNRLF
notes: C-terminal Flag tag (EcSTH-Flag), human-codon cDNA, expressed in HeLa cells, anti-Flag M2 purified
Km (purified protein [7]): 242.8 µM
kcat (purified protein [7]): 82.73 s⁻¹
Km (purified protein [8]): 137.1 µM
kcat (purified protein [8]): 81.73 s⁻¹
